Measured values: the supplement of paper PMC10307832

What was measured:
Assay in all cases: relative viability (nuclei count vs DMSO), 5 days (fraction); higher = more cells survive
[1] = compound: CNC(=O)c1ccccc1Sc1ccc2c(/C=C/c3ccccn3)n[nH]c2c1 [Axitinib] + Cc1nc(NC(=O)N2CCC[C@H]2C(N)=O)sc1-c1ccnc(C(C)(C)C(F)(F)F)c1 [Alpelisib] (partner 2 µM)
How it was run: (§1)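 Nuclei were stained with Hoechst during a one-step fixation (final 0.05% Triton X-100, 1% formaldehyde, 1 ug/ml Hoechst) carried out 5 days after dosing, then counted on 4× images. The cells, lung cancer lines in 1536-well plates, had been dosed by pin tool the day after seeding with one drug alone or a fixed anchor-drug dose plus five library-drug doses (not always all listed) in √10 steps. Relative viability is the nuclei count in treated wells divided by that in vehicle wells, and each value is the median of duplicate plates.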

[2] = compound: CC1=CC=C(C=C1)C(=O)CN2C3=C(CCCC3)SC2=N [Pifithrin_alpha] + CS(=O)(=O)N1CCN(Cc2cc3nc(-c4cccc5[nH]ncc45)nc(N4CCOCC4)c3s2)CC1 [Pictilisib] (partner 1 µM)
How it was run: as §1

[3] = compound: Nc1nc(Nc2ccc3c(c2)CC[C@@H](N2CCCC2)CC3)nn1-c1cc2c(nn1)-c1ccccc1CCC2 [Bemcentinib] + N=C(N)NC(=N)NCCc1ccccc1 [Phenformin] (partner 250 µM)
How it was run: as §1

[4] = compound: CC1=CC=C(C=C1)C(=O)CN2C3=C(CCCC3)SC2=N [Pifithrin_alpha] + CC(=O)Nc1cccc(-n2c(=O)n(C3CC3)c(=O)c3c(Nc4ccc(I)cc4F)n(C)c(=O)c(C)c32)c1 [Trametinib] (partner 0.02 µM)
How it was run: as §1

| Cell Line | relative viability ([1]; first compound 0.005 µM) | relative viability ([1]; first compound 0.01581 µM) | relative viability ([1]; first compound 0.05 µM) | relative viability ([1]; first compound 0.1581 µM) | relative viability ([1]; first compound 0.5 µM) | relative viability ([2]; first compound 1 µM) | relative viability ([2]; first compound 3.162 µM) | relative viability ([2]; first compound 10 µM) | relative viability ([2]; first compound 100 µM) | relative viability ([3]; first compound 0.04 µM) | relative viability ([3]; first compound 0.1265 µM) | relative viability ([3]; first compound 0.4 µM) | relative viability ([3]; first compound 4 µM) | relative viability ([4]; first compound 3.162 µM) | relative viability ([4]; first compound 10 µM) | relative viability ([4]; first compound 31.62 µM) | relative viability ([4]; first compound 100 µM) | relative viability ([2]; first compound 31.62 µM) | relative viability ([3]; first compound 1.265 µM) | relative viability ([4]; first compound 1 µM) |
| --- | --- | --- | --- | --- | --- | --- | --- | --- | --- | --- | --- | --- | --- | --- | --- | --- | --- | --- | --- | --- |
| HCC-78 | 0.34 | 0.328 | 0.3 | 0.322 | 0.366 | 0.134 | 0.218 | 0.174 | 0.196 | 0.639 | 0.656 | 0.742 | 0.668 | 0.774 | 0.71 | 0.541 | 0.598 | – | – | – |
| HCC-366 | 0.616 | 0.482 | 0.505 | 0.387 | 0.619 | 0.105 | 0.106 | 0.136 | 0.112 | 0.604 | 0.63 | 0.638 | 0.587 | 0.248 | 0.238 | – | 0.187 | 0.136 | 0.653 | 0.249 |
| HCC-827 | 0.955 | 0.923 | 0.991 | 0.978 | 1.08 | 1.05 | 0.982 | 0.907 | 1.02 | 0.413 | 0.375 | 0.43 | 0.419 | 0.562 | 0.576 | 0.498 | 0.573 | 0.791 | 0.431 | 0.558 |
| HOP-62 | 1.07 | 1.22 | 0.78 | 0.998 | 1.2 | 0.376 | 0.822 | 0.875 | 0.804 | 0.694 | 0.707 | 0.834 | 0.645 | 0.377 | 0.368 | 0.361 | 0.335 | 0.342 | 0.704 | 0.343 |
| IA-LM | 0.79 | 0.883 | 0.733 | 0.761 | 0.619 | 0.369 | 0.298 | 0.312 | 0.291 | – | – | – | – | – | – | – | – | 0.344 | – | – |
| LC-2-ad | 0.942 | 0.859 | 0.83 | 0.907 | 0.903 | 0.414 | 0.382 | 0.489 | 0.18 | 0.535 | 0.601 | 0.592 | 0.588 | 0.945 | 0.912 | 0.757 | 0.811 | 0.304 | 0.602 | 0.973 |
| LCLC-97TM1 | 0.252 | 0.285 | 0.237 | 0.205 | 0.247 | – | 0.179 | 0.224 | 0.229 | 0.471 | 0.483 | 0.407 | 0.396 | 0.167 | 0.191 | – | 0.18 | – | 0.383 | – |
| LCLC-103H | 0.987 | 0.922 | 0.845 | 0.621 | 0.999 | 0.53 | 0.531 | 0.566 | 0.567 | 0.366 | 0.255 | 0.332 | 0.35 | 0.597 | 0.646 | 0.623 | 0.702 | 0.551 | 0.289 | 0.681 |
| LK-2 | 1.02 | 0.853 | 0.838 | 0.902 | 0.828 | 0.631 | 0.599 | 0.589 | 0.62 | 0.461 | 0.483 | 0.443 | 0.828 | 0.856 | 0.684 | 0.601 | 0.687 | – | 0.463 | 0.811 |
